# Results taken from patent US20190002825A1, “Method for Inducing Targeted Differentiation of Human Stem Cells Toward Hepatic Cells” (TRANSCEND CYTOTHERAPY CO., LTD, priority 2015, published 2019).
# Tests used:
# ALK4 = molecular target: T1, ALK4 (Homo sapiens, UniProt P36896); conditions: cited from earlier work
# T1 sequence (P36896 24-505): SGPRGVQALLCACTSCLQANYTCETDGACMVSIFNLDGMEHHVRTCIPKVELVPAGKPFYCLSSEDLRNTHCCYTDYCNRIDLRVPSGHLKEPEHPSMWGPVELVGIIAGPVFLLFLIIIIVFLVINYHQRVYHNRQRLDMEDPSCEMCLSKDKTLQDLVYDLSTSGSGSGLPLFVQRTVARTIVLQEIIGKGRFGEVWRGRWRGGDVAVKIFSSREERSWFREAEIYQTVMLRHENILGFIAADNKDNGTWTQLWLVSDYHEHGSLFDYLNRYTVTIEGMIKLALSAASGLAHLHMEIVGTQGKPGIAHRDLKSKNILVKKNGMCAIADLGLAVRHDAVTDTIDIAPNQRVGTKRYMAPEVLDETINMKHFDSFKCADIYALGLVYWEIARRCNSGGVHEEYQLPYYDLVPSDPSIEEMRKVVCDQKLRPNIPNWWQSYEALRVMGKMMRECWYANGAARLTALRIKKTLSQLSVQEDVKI
# ALK2, ALK3 and ALK6 = conditions: cited from earlier work
# [1] = tested on: CDC2, ERK2 and other kinases; conditions: cited from earlier work
# [2] = tested on: PKC, cAMP-dependent protein kinases, MLCK and PAK; conditions: cited from earlier work
# GSK-3β = GSK-3β (Homo sapiens, UniProt P49841); conditions: cited from earlier work
# [3] = in vivo; cited from earlier work
# [4] = in vivo; cited from earlier work; remark: listed apart in the source
# ROCK = conditions: cell-free assays; cited from earlier work
# [5] = tested on: human embryonic stem cells (hESCs); conditions: cited from earlier work
# BMP type II receptors = conditions: cited from earlier work
# TGF-β type II receptors = TGF-β type II receptors (Homo sapiens, UniProt P37173); conditions: cited from earlier work
# [6] = tested on: activin type II receptors; conditions: cited from earlier work
# Wnt signaling pathway = conditions: cited from earlier work
# TGF-βRII = TGF-βRII (Homo sapiens, UniProt P37173); conditions: cited from earlier work
# CYP1A2 = format: cell-based, human
# [7] = molecular target: TGF-β receptor type II (TβRII) (Homo sapiens, UniProt P37173); conditions: cell-free assays; cited from earlier work
# ROCK1 = ROCK1 (Homo sapiens, UniProt Q13464); conditions: cited from earlier work
# [8] = tested on: p38, MAPK and other kinases; conditions: cited from earlier work
# ALK1, ALK2, ALK3 or ALK6 = conditions: cited from earlier work
# ALK7 = molecular target: T2, ALK7 (Homo sapiens, UniProt Q8NER5); conditions: in words; cited from earlier work
# T2 sequence (Q8NER5 21-493): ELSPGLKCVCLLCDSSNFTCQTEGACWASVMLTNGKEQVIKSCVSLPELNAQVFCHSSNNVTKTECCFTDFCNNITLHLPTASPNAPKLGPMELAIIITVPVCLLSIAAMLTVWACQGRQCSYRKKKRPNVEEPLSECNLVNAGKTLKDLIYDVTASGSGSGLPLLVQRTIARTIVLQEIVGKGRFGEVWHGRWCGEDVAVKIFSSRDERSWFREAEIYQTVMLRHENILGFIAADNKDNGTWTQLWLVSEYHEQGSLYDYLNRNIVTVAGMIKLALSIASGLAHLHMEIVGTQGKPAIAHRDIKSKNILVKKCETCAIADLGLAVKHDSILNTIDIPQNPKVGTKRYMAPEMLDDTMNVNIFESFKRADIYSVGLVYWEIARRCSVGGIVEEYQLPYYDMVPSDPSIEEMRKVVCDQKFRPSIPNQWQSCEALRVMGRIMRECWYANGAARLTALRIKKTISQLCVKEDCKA
# GSK-3α = GSK-3α (Homo sapiens, UniProt P49840); conditions: cited from earlier work
# Chain of GSK-3α (P49840 whole entry, species assumed): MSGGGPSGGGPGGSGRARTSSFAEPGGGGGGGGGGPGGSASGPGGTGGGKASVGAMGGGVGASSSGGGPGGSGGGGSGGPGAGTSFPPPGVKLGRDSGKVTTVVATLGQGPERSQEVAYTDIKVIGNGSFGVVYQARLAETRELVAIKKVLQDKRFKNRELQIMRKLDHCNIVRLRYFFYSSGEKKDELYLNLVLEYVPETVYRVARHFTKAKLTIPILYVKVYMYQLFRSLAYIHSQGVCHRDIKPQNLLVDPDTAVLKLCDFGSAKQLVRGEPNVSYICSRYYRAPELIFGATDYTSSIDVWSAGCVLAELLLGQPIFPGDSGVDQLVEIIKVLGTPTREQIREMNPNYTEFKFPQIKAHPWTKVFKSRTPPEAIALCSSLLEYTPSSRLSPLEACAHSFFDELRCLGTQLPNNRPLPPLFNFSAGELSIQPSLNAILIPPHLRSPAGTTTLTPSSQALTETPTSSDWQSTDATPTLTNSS
# Chain of GSK-3β (P49841 whole entry): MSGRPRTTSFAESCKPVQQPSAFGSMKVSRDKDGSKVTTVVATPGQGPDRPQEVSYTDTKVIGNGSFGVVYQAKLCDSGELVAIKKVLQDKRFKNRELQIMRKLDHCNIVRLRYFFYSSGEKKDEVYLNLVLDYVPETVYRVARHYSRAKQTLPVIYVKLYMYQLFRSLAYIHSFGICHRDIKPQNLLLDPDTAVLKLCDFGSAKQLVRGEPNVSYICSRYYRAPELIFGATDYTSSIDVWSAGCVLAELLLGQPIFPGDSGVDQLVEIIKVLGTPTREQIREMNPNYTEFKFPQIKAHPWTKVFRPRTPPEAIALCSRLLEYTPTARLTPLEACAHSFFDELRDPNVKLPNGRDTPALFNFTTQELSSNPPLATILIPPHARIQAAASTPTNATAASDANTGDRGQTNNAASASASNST
# Chain of ROCK1 (Q13464 whole entry): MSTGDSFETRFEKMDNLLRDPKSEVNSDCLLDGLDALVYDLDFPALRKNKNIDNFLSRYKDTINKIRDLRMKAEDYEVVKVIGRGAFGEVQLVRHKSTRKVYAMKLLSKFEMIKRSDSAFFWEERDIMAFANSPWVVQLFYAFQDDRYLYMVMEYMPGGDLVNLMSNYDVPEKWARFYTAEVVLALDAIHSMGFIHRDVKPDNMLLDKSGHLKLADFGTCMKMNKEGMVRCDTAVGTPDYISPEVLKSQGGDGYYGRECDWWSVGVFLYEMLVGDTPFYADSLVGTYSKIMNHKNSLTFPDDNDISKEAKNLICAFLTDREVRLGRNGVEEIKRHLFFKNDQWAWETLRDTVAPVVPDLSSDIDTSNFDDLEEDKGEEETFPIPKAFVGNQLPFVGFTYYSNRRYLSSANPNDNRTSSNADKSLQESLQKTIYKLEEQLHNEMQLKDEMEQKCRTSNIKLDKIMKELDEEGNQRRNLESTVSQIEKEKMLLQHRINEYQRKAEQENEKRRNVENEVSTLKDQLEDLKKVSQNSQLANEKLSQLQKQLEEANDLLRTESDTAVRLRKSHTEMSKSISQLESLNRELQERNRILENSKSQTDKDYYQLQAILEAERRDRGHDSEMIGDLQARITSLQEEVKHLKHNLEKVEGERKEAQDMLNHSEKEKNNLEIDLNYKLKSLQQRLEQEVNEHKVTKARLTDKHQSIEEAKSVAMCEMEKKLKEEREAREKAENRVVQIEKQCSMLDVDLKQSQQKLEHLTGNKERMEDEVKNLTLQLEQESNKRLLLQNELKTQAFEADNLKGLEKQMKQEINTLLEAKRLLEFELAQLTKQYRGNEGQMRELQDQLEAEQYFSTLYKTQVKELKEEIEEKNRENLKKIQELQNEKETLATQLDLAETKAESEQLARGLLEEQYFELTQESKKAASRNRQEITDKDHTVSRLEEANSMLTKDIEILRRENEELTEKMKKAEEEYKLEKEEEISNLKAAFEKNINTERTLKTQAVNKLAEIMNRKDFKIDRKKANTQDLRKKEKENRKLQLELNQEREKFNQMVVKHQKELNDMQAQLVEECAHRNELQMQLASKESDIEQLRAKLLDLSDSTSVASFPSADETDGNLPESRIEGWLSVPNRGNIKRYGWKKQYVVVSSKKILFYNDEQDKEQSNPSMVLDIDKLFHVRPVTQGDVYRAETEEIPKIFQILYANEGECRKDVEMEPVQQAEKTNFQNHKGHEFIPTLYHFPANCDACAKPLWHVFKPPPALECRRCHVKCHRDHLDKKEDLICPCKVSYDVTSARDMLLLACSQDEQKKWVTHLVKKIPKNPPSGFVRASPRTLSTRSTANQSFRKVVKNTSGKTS
# Chain of TGF-βRII (P37173 23-567): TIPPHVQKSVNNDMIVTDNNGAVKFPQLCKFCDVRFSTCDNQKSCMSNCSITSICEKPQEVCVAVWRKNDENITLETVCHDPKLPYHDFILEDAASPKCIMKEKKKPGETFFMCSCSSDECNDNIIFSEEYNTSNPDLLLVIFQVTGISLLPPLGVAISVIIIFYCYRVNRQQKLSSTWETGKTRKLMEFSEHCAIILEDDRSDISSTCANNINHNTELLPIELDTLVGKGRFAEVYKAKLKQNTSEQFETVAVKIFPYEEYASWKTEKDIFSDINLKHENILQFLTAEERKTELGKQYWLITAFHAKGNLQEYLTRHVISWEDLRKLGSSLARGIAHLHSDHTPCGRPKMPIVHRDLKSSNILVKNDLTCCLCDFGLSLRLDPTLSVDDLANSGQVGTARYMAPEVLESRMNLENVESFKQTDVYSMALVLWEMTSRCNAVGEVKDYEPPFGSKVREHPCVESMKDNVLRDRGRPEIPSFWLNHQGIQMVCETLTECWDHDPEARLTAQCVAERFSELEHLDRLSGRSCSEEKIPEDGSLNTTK
# Chain of TGF-β type II receptors (P37173 23-567): as above
# Chain of TGF-β receptor type II (TβRII) (P37173 23-567): as above
molecule,measurement,setting,value
Cc1cccc(-c2[nH]c(C(C)(C)C)nc2-c2ccc3nccnc3c2)n1 [SB525334],"effect on ALK4, times lower than on ALK5",ALK4,4 times
same,"activity on ALK2, ALK3 and ALK6","ALK2, ALK3 and ALK6",no activity
Cc1cnc(-c2cnc(NCCNc3ccc(C#N)cn3)nc2-c2ccc(Cl)cc2Cl)[nH]1 [CHIR-99021],"times more inhibitory on GSK-3α and GSK-3β than on CDC2, ERK2 and other kinases",[1],500 times
C[C@@H](N)[C@H]1CC[C@H](C(=O)Nc2ccncc2)CC1 [Y-27632],"times more inhibitory on ROCK1 than on other kinases including PKC, cAMP-dependent protein kinases, MLCK and PAK",[2],≥ 200 times
Nc1cccc(-c2cc3c(Oc4cccc(O)c4)ncnc3[nH]2)c1 [TWS119],IC50,GSK-3β,30 nM
N#Cc1ccc2[nH]c(O)c(-c3ccc(CN4CCOCC4)cn3)c2c1 [AZD1080],oral bioavailability,[3],orally bioavailable
same,permeability to the brain,[4],permeable to the brain
O=C(NCc1ccccc1)c1csc(Nc2ccncn2)n1 [Thiazovivin],IC50,ROCK,500 nM
same,survival of human embryonic stem cells (hESCs) after single cell isolation,[5],promotes the survival
O=C(NC1CCOCC1)c1ccc(-c2cc(-c3c[nH]nc3-c3ccccn3)ccn2)cc1 [GW788388],inhibition of the activity of BMP type II receptors,BMP type II receptors,does not inhibit
same,inhibition of the activity of TGF-β type II receptors,TGF-β type II receptors,inhibits
same,inhibition of the activity of activin type II receptors,[6],inhibits
CN1CCN(S(=O)(=O)c2ccc(-c3cnc(N)c(C(=O)Nc4cccnc4)n3)cc2)CC1 [AZD2858],effect on the Wnt signaling pathway,Wnt signaling pathway,enhances
SD-208,times more selective on TGF-βRI than on TGF-βRII,TGF-βRII,≥ 100 times
COc1ccc2[nH]c([S+]([O-])Cc3ncc(C)c(OC)c3C)nc2c1 (centres unmarked) [omeprazole],activity of P450 enzyme (CYP1A2) when induced,CYP1A2,enhanced
c1ccc(-c2nn3c(c2-c2ccnc4cc(OCCN5CCOCC5)ccc24)CCC3)nc1 [LY2109761],Ki,[7],300 nM
O=C(NCc1cccc(O)c1)Nc1nc(-c2ccncc2)cs1 [RKI-1447],IC50,ROCK1,14.5 nM
NC(=O)c1ccc(-c2nc(-c3ccc4c(c3)OCO4)c(-c3ccccn3)[nH]2)cc1 [SB-431542],"times more inhibitory on ALK5 than on p38, MAPK and other kinases",[8],100 times
Cc1cccc(-c2[nH]c(C(C)(C)C)nc2-c2ccc3c(c2)OCO3)n1 [SB505124],IC50,ALK4; cell-free assays where stated,129 nM
same,"inhibition of ALK1, ALK2, ALK3 or ALK6","ALK1, ALK2, ALK3 or ALK6",does not inhibit
same,inhibition of ALK7,ALK7,inhibits
Cc1cccc(-c2[nH]c(CNc3ccccc3F)nc2-c2ccc3ncnn3c2)n1 [EW-7197],oral bioavailability,[3],orally bioavailable
CHIR-98014,IC50,GSK-3α,0.65 nM
